Series [1] has as its target T1, TLR9 (Homo sapiens, UniProt Q9NR96).
T1 sequence (Q9NR96 26-1032): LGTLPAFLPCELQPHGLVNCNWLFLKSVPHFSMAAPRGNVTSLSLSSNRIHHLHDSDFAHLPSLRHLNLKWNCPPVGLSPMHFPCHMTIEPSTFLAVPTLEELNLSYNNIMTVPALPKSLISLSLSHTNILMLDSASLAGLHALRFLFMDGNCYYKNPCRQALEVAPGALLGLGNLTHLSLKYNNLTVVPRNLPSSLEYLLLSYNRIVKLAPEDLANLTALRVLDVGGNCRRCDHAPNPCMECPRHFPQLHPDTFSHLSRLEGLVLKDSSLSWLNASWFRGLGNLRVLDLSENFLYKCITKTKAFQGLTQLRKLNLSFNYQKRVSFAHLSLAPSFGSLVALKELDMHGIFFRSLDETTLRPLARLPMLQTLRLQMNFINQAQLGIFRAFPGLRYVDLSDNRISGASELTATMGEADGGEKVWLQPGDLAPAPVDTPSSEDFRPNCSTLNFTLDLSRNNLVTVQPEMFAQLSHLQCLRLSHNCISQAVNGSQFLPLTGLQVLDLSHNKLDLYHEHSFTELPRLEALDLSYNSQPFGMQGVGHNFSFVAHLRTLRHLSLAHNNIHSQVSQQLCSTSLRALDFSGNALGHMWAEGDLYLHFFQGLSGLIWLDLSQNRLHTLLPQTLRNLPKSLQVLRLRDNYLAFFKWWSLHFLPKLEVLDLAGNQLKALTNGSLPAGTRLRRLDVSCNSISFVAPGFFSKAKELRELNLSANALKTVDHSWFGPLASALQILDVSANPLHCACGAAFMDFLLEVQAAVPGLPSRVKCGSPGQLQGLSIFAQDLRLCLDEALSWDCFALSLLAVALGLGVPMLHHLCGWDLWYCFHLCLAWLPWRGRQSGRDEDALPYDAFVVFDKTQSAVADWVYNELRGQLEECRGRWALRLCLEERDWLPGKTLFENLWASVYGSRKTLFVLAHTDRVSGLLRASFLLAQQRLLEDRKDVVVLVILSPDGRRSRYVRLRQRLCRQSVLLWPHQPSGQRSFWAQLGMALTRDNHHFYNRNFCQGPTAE
Particulars: Target TLR9; values from cited literature/patent; cited from earlier work.

Series [2] deals with T2, TLR9 (Mus musculus, UniProt Q9EQU3).
T2 construct: endogenous in cells; host or cells: RAW 264.7
T2 sequence (Q9EQU3 26-1032): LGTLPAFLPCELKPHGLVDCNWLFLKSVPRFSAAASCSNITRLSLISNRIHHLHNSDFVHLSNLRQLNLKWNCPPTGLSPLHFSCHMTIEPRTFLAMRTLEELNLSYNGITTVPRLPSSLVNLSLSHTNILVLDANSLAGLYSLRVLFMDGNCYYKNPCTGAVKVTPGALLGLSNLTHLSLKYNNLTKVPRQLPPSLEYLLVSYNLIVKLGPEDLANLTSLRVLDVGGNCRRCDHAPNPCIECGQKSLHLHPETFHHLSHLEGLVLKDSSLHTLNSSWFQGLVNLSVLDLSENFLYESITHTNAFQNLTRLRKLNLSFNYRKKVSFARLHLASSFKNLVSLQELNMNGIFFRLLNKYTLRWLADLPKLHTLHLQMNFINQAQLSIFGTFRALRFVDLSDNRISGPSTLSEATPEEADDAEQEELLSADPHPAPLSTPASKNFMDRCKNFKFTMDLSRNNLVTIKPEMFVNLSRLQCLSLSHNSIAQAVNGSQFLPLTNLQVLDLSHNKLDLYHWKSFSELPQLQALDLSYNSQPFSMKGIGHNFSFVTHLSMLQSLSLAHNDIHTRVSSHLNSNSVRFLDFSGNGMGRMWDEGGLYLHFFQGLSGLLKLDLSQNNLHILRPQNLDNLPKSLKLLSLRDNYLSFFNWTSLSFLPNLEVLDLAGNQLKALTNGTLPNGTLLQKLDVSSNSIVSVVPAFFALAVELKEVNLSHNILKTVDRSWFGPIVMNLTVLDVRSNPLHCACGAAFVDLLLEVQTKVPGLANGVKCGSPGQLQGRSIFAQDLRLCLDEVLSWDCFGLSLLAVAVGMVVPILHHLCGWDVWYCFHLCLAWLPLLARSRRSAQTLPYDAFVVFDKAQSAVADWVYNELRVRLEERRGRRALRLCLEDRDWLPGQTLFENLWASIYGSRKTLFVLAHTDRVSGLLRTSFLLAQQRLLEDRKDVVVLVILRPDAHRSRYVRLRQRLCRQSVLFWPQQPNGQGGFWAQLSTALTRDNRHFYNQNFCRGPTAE
Briefly: TLR9-mediated TNF-α secretion (ODN2395 stimulation), ELISA. The series is classed as cell-based, murine. The following applies: for inhibitory efficacy on TLR9-mediated TNF-α secretion: RAW 264.7, 10 or 50 μM, ODN2395 (FIG. 4A). On the procedure: (§1) Agonists specific to TLR1/TLR2 (Pam3CSK4), TLR2/TLR6 (FSL-1), TLR3 (Poly I:C), TLR7 (imiquimod), and TLR8 (TL8-506) were purchased from InvivoGen Ltd. (Hong-Kong, China), and a TLR4-specific agonist (LPS from E. coli O111:B4) was purchased from Sigma-Aldrich, Inc. For TLR9-specific stimulation, class C CpG-ODN (ODN2395, 5′-TCGTCGTTTTCGGCGCGCGCCG-3′) having full phosphorothioate backbone modification was synthesized (Bioneer, Inc., Daejeon, Korea). All TLR agonists were dissolved in deionized water and applied to a culture media for TLR activation. The cells were treated with test compounds or a control medium for 1 hour, and then stimulated with a TLR agonist for 4 hours, or 24 hours in the case of poly(I:C), and the cytokine secretion was monitored.
(§2) RAW 264.7 or differentiated THP-1 cell lines were seeded onto a 96-well culture plate at a density of 2×10^4 cells/well. The cells were treated with test compounds for 1 hour followed by the stimulation with TLR agonists for 4 hours. The supernatant was transferred to pre-coated assay plates, and the secretion levels of mouse and human TNF-α were measured by respective ELISA kits (Invitrogen, Carlsbad, CA, USA). All experiments were performed according to the manufacturer's instructions. Absorbance was measured by a microplate reader spectrophotometer (Molecular Devices, Inc., San Jose, CA, USA), and data was interpolated from a standard curve using SoftMax Pro 5.3 software (Molecular Devices, Inc.).
(§3) In order to evaluate the antagonistic effect of each compound on TLR7/TLR9 through ELISA (enzyme-linked immunosorbent assay), RAW 264.7 cells were pretreated with the eight compounds followed by the stimulation with a TLR7-specific agonist (imiquimod, 3.61 μM) or with a TLR9-specific agonist (ODN2395, 0.5 μM). […] Since the two ligands had no agonistic effect per se (FIG. 3B), the increased cytokine production may be due to cell activation (or non-specific cellular stress) by co-treatment. Consequently, TIC10 was selected as the most suitable lead for further optimization to improve the inhibitory potency against both TLR7 and TLR9.
A general note: In an ELISA, binding on a coated surface is turned into a signal by an enzyme label.

For series [3], the system named is RAW 264.7 cells. Briefly: Agonistic activity: TNF-α secretion after stimulation with compound alone (ELISA). The series is classed as cell-based, murine. The following applies: compound alone 24 hours.
The target of series [4] is T3, TLR7 (Mus musculus, UniProt P58681).
T3 construct: endogenous in cells; host or cells: RAW 264.7
T3 sequence (P58681 27-1050): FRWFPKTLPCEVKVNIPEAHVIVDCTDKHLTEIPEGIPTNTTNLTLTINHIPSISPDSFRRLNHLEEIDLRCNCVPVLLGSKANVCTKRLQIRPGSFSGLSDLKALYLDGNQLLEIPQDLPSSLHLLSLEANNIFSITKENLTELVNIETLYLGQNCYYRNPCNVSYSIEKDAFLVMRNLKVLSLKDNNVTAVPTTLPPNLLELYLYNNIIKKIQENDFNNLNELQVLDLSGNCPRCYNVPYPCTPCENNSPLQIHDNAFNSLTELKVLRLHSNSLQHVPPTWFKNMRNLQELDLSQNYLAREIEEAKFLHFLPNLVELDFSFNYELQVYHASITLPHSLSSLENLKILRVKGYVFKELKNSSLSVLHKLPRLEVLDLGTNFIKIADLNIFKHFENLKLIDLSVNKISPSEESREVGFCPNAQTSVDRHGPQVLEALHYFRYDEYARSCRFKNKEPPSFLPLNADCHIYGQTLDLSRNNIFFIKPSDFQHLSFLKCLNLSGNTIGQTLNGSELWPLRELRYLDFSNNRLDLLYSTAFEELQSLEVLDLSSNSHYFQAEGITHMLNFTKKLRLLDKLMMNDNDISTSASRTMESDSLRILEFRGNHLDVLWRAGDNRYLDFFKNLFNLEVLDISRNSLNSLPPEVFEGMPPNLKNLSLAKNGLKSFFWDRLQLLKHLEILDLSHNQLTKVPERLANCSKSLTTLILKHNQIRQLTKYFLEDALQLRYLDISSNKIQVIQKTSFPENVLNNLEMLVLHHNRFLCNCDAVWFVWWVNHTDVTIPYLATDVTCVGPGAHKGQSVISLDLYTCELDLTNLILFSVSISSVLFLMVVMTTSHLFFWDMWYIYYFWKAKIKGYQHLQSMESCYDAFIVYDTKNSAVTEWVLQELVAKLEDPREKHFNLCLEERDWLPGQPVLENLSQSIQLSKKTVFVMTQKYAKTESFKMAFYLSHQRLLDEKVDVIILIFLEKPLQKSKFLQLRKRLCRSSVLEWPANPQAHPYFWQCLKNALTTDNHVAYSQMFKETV
The series can be described thus: TLR7-mediated TNF-α secretion (imiquimod stimulation), ELISA. The series is classed as cell-based, murine. The following applies: for inhibitory efficacy on TLR7-mediated TNF-α secretion: RAW 264.7, 10 or 50 μM, imiquimod (FIG. 4B). As for the experimental part: as §1, §2, §3

For series [5], the system named is RAW 264.7 cells. Briefly: MTT cell viability / cytotoxicity assay. The series is classed as cell-based, murine. The following applies: 50 μM, 24 hours. As for the experimental part:
RAW 264.7 cells were seeded onto 96-well cell culture plate at a density of 2×10^4 cells/well and allowed to stabilize overnight. The cells were treated with test compounds or a negative control (DMSO; dimethyl sulfoxide) for 24 hours, where the final DMSO concentration of the treated well was 0.25%. Then, the medium was removed, and 500 μg/ml of an MTT (3-(4,5-dimethylthiazol-2-yl)-2,5-diphenyltetrazolium bromide, InvivoGen Ltd.) solution was added to each well. After 3 hours, the solution was replaced with DMSO (Biosesang Co. Ltd., Korea), and incubated for an additional 30 minutes to complete formazan dissolution. Absorbance was measured by a microplate colorimetric reader at a wavelength of 595 nm and normalized to the control for the determination of the cell viability. All incubations were performed under the same conditions as described above.
Before testing the antagonistic properties of the selected compounds, an MTT (3-(4,5-dimethylthiazol-2-yl)-2,5-diphenyltetrazolium bromide) assay was performed, whereby the cytotoxicity of the compounds in a murine macrophage cell line (RAW 264.7) was monitored. […] The other ligands were excluded as test subjects due to the high cytotoxicity thereof.

As for `CN1CCN(c2ccc(-c3nc(NCCN4CCOCC4)c4ccccc4n3)cc2)CC1` [CHEMBL457704], in series [1], the half-maximal inhibitory concentration (IC50) – broadly, the concentration that inhibits the measured activity by half – was 0.02 µM.

With `CN(C)CCNc1nc(-c2ccc(N3CCN(C)CC3)cc2)nc2ccccc12` [CHEMBL515364], in series [1], the IC50 was 0.03 µM.

Regarding `COc1cc2nc(-c3ccc(N4CCN(C)CC4)cc3)nc(NCCN3CCOCC3)c2cc1OC` [CPG-52364], the concentration for half-maximal inhibition (IC50) in series [1] is 0.0046 µM.

As for `COc1ccc(-c2cnc(NCc3cccc(OC)c3O)n2C)cc1` [TIC10, 2-methoxy-6-({[5-(4-methoxyphenyl)-1-methyl-1H-imidazol-2-yl]amino}methyl)phenol], the “inhibition of TLR9-mediated TNF-α secretion” value in series [2] (RAW 264.7, 50 μM, pretreated 1 hour, ODN2395 0.5 μM 4 hours) is given as “significantly inhibit”. Also, the “expression of proinflammatory cytokine TNF-α on stimulation with ligand alone (agonistic role)” value in series [3] was “did not induce the expression of proinflammatory cytokine TNF-α”. In addition, the “inhibition of TLR7-mediated TNF-α secretion” value in series [4] (RAW 264.7, at 50 µM, pretreated 1 hour, imiquimod 3.61 μM 4 hours) is “inhibited”. The “cytotoxicity (MTT assay)” value in series [5] is “non-toxic or marginally toxic”.

With `CCOc1ccc(-c2cnc(NCc3ccc(OC)c(OC)c3OC)n2C)cc1` [TIC10-3], the “inhibitory efficacy on TLR9-mediated TNF-α secretion” value in series [2] is “improved inhibitory efficacy compared to TIC10”. The “inhibitory efficacy on TLR7-mediated TNF-α secretion” value in series [4] is “improved inhibitory efficacy compared to TIC10”.

`CCOc1ccc(-c2cnc(NCc3cccc(OC)c3OC)n2C)cc1` [TIC10-8]: the “inhibitory efficacy on TLR9-mediated TNF-α secretion” value in series [2] is “improved inhibitory efficacy compared to TIC10”. For the same compound, the “inhibitory efficacy on TLR7-mediated TNF-α secretion” value in series [4] is given as “improved inhibitory efficacy compared to TIC10”.

The record behind these values is patent US12565475B2, “Small molecule compound inhibiting signal transmission path of TLR7 and TLR9 and use thereof” (AJOU UNIVERSITY INDUSTRY-ACADEMIC COOPERATION FOUNDATION, priority 2019, dated 2026).
